Experimental data from PubChem BioAssay AID1963439 (Molecular Pharmacology Branch, DTP, NCI, 2024).

System: NCI-H196 complex spheroids with HUVEC/MSC, growth % T/C
Assay: Anticancer human tumor NCI-H196 cell line growth inhibition [Asc];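 also: spheroids exposed to compound for 7 days before measurement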;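 as to viability, T/C: 100% = DMSO vehicle control wells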
Conditions: for IC50: curve of first compound; for viability, T/C: stronger effect = lower value
How it was run: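 Stromal components (HUVEC and hMSC) are co-assembled with the cancer cells into multicellular spheroids. Drugs are then added singly or paired, at concentrations falling by half-log increments from a clinically achievable maximum, capped at 10 microM without known Cmax.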

[1] = second compound 0.03 µM, first compound 0.00316 µM
[2] = second compound 0.03 µM, first compound 0.01 µM
[3] = second compound 0.03 µM, first compound 0.0316 µM
[4] = second compound 0.03 µM, first compound 0.1 µM
[5] = second compound 0.0949 µM, first compound 0.00316 µM
[6] = second compound 0.0949 µM, first compound 0.01 µM
[7] = second compound 0.0949 µM, first compound 0.0316 µM
[8] = second compound 0.0949 µM, first compound 0.1 µM
[9] = second compound 0.3 µM, first compound 0.00316 µM
[10] = second compound 0.3 µM, first compound 0.01 µM
[11] = second compound 0.3 µM, first compound 0.0316 µM
[12] = second compound 0.3 µM, first compound 0.1 µM
[13] = second compound 0.949 µM, first compound 0.00316 µM
[14] = second compound 0.949 µM, first compound 0.01 µM
[15] = second compound 0.949 µM, first compound 0.0316 µM
[16] = second compound 0.949 µM, first compound 0.1 µM
[17] = second compound 3 µM, first compound 0.00316 µM
[18] = second compound 3 µM, first compound 0.01 µM
[19] = second compound 3 µM, first compound 0.0316 µM
[20] = second compound 3 µM, first compound 0.1 µM

Q: How did the IC50 (second compound 0.03 µM) turn out when COc1c(OCCCN2CCOCC2)ccc2c3n(c(=NC(=O)c4cnc(N)nc4)nc12)CCN3 + CCN1C(C(=O)NC23CCC(C(=O)O)(CC2)CC3)C(c2cccc(Cl)c2F)C2(C(=O)Nc3cc(Cl)ccc32)C12CCCCC2 was run?
A: The IC50 was greater than 1000 nM.

Q: And the IC50 (second compound 0.0949 µM)?
A: The IC50 was greater than 1000 nM.

Q: What about the IC50 (second compound 0.3 µM) of the same molecule?
A: The IC50 was greater than 1000 nM.

Q: What about the IC50 (second compound 0.949 µM) of the same molecule?
A: The IC50 was greater than 1000 nM.

Q: What about the IC50 (second compound 3 µM) of the same molecule?
A: The IC50 was greater than 1000 nM.

Q: And the viability, T/C [1]?
A: The viability, T/C was 101%.

Q: And the viability, T/C [2]?
A: Its viability, T/C is 106%.

Q: What about the viability, T/C [3] of the same molecule?
A: The viability, T/C was 91%.

Q: What about the viability, T/C [4] of the same molecule?
A: The viability, T/C was 77.1%.

Q: What about the viability, T/C (second compound 0.03 µM, first compound 0.316 µM) of the same molecule?
A: Its viability, T/C is 68.8%.

Q: And the viability, T/C (second compound 0.03 µM, first compound 1 µM)?
A: The viability, T/C was 52.1%.

Q: What about the viability, T/C [5] of the same molecule?
A: The viability, T/C was 117%.

Q: What about the viability, T/C [6] of the same molecule?
A: The viability, T/C was 99.6%.

Q: And the viability, T/C [7]?
A: Its viability, T/C is 98.5%.

Q: What about the viability, T/C [8] of the same molecule?
A: Its viability, T/C is 82.8%.

Q: And the viability, T/C (second compound 0.0949 µM, first compound 0.316 µM)?
A: The viability, T/C was 72.7%.

Q: And the viability, T/C (second compound 0.0949 µM, first compound 1 µM)?
A: The viability, T/C was 52.2%.

Q: What about the viability, T/C [9] of the same molecule?
A: Its viability, T/C is 110%.

Q: And the viability, T/C [10]?
A: Its viability, T/C is 102%.

Q: What about the viability, T/C [11] of the same molecule?
A: Its viability, T/C is 106%.

Q: And the viability, T/C [12]?
A: Its viability, T/C is 83.1%.

Q: And the viability, T/C (second compound 0.3 µM, first compound 0.316 µM)?
A: Its viability, T/C is 73.3%.

Q: What about the viability, T/C (second compound 0.3 µM, first compound 1 µM) of the same molecule?
A: The viability, T/C was 59.7%.

Q: And the viability, T/C [13]?
A: Its viability, T/C is 103%.

Q: And the viability, T/C [14]?
A: The viability, T/C was 109%.

Q: And the viability, T/C [15]?
A: The viability, T/C was 94.9%.

Q: What about the viability, T/C [16] of the same molecule?
A: The viability, T/C was 85.7%.

Q: And the viability, T/C (second compound 0.949 µM, first compound 0.316 µM)?
A: The viability, T/C was 66.9%.

Q: And the viability, T/C (second compound 0.949 µM, first compound 1 µM)?
A: The viability, T/C was 57.3%.

Q: And the viability, T/C [17]?
A: The viability, T/C was 113%.

Q: And the viability, T/C [18]?
A: The viability, T/C was 106%.

Q: And the viability, T/C [19]?
A: Its viability, T/C is 105%.

Q: And the viability, T/C [20]?
A: The viability, T/C was 81.2%.

Q: What about the viability, T/C (second compound 3 µM, first compound 0.316 µM) of the same molecule?
A: The viability, T/C was 73.1%.

Q: What about the viability, T/C (second compound 3 µM, first compound 1 µM) of the same molecule?
A: The viability, T/C was 54.2%.

Q: Which IC50 (second compound 0.03 µM) does the source give for NC(=O)C(=Cn1cnc(-c2cc(C(F)(F)F)cc(C(F)(F)F)c2)n1)c1cncnc1 + CCN1C(C(=O)NC23CCC(C(=O)O)(CC2)CC3)C(c2cccc(Cl)c2F)C2(C(=O)Nc3cc(Cl)ccc32)C12CCCCC2 here?
A: The IC50 was 22.1 nM.

Q: And the IC50 (second compound 0.0949 µM)?
A: Its IC50 is 24.3 nM.

Q: And the IC50 (second compound 0.3 µM)?
A: Its IC50 is 26.2 nM.

Q: And the IC50 (second compound 0.949 µM)?
A: The IC50 was 26.4 nM.

Q: What about the IC50 (second compound 3 µM) of the same molecule?
A: The IC50 was 26.8 nM.

Q: What about the viability, T/C (second compound 0.03 µM, first compound 0.000949 µM) of the same molecule?
A: Its viability, T/C is 110%.

Q: What about the viability, T/C (second compound 0.03 µM, first compound 0.003 µM) of the same molecule?
A: The viability, T/C was 99.3%.

Q: What about the viability, T/C (second compound 0.03 µM, first compound 0.00949 µM) of the same molecule?
A: The viability, T/C was 79.1%.

Q: And the viability, T/C (second compound 0.03 µM, first compound 0.03 µM)?
A: Its viability, T/C is 41.6%.

Q: And the viability, T/C (second compound 0.03 µM, first compound 0.0949 µM)?
A: Its viability, T/C is 7.35%.

Q: And the viability, T/C (second compound 0.03 µM, first compound 0.3 µM)?
A: The viability, T/C was 4.55%.

Q: What about the viability, T/C (second compound 0.0949 µM, first compound 0.000949 µM) of the same molecule?
A: The viability, T/C was 100%.

Q: And the viability, T/C (second compound 0.0949 µM, first compound 0.003 µM)?
A: Its viability, T/C is 103%.

Q: And the viability, T/C (second compound 0.0949 µM, first compound 0.00949 µM)?
A: Its viability, T/C is 85.2%.

Q: And the viability, T/C (second compound 0.0949 µM, first compound 0.03 µM)?
A: The viability, T/C was 42.6%.

Q: What about the viability, T/C (second compound 0.0949 µM, first compound 0.0949 µM) of the same molecule?
A: The viability, T/C was 8.3%.

Q: And the viability, T/C (second compound 0.0949 µM, first compound 0.3 µM)?
A: The viability, T/C was 3.76%.

Q: And the viability, T/C (second compound 0.3 µM, first compound 0.000949 µM)?
A: Its viability, T/C is 108%.

Q: What about the viability, T/C (second compound 0.3 µM, first compound 0.003 µM) of the same molecule?
A: The viability, T/C was 101%.

Q: What about the viability, T/C (second compound 0.3 µM, first compound 0.00949 µM) of the same molecule?
A: The viability, T/C was 90.4%.

Q: What about the viability, T/C (second compound 0.3 µM, first compound 0.03 µM) of the same molecule?
A: Its viability, T/C is 46.1%.

Q: And the viability, T/C (second compound 0.3 µM, first compound 0.0949 µM)?
A: Its viability, T/C is 4.78%.

Q: And the viability, T/C (second compound 0.3 µM, first compound 0.3 µM)?
A: Its viability, T/C is 5.31%.

Q: And the viability, T/C (second compound 0.949 µM, first compound 0.000949 µM)?
A: The viability, T/C was 116%.

Q: And the viability, T/C (second compound 0.949 µM, first compound 0.003 µM)?
A: Its viability, T/C is 109%.

Q: And the viability, T/C (second compound 0.949 µM, first compound 0.00949 µM)?
A: The viability, T/C was 93.1%.

Q: What about the viability, T/C (second compound 0.949 µM, first compound 0.03 µM) of the same molecule?
A: Its viability, T/C is 46.6%.

Q: What about the viability, T/C (second compound 0.949 µM, first compound 0.0949 µM) of the same molecule?
A: The viability, T/C was 4.71%.

Q: What about the viability, T/C (second compound 0.949 µM, first compound 0.3 µM) of the same molecule?
A: Its viability, T/C is 5.06%.

Q: What about the viability, T/C (second compound 3 µM, first compound 0.000949 µM) of the same molecule?
A: The viability, T/C was 124%.

Q: And the viability, T/C (second compound 3 µM, first compound 0.003 µM)?
A: Its viability, T/C is 119%.

Q: What about the viability, T/C (second compound 3 µM, first compound 0.00949 µM) of the same molecule?
A: The viability, T/C was 106%.

Q: And the viability, T/C (second compound 3 µM, first compound 0.03 µM)?
A: The viability, T/C was 44.6%.

Q: What about the viability, T/C (second compound 3 µM, first compound 0.0949 µM) of the same molecule?
A: Its viability, T/C is 3.65%.

Q: What about the viability, T/C (second compound 3 µM, first compound 0.3 µM) of the same molecule?
A: Its viability, T/C is 4.05%.

Q: What does the source list for NC1CCC(NC2CC2c2ccccc2)CC1 (stereo not given) + CCN1C(C(=O)NC23CCC(C(=O)O)(CC2)CC3)C(c2cccc(Cl)c2F)C2(C(=O)Nc3cc(Cl)ccc32)C12CCCCC2?
A: IC50 (second compound 0.03 µM): > 100 nM; IC50 (second compound 0.0949 µM): > 100 nM; IC50 (second compound 0.3 µM): > 100 nM; IC50 (second compound 0.949 µM): > 100 nM; IC50 (second compound 3 µM): > 100 nM; viability, T/C (second compound 0.03 µM, first compound 0.000316 µM): 109%; viability, T/C (second compound 0.03 µM, first compound 0.001 µM): 98%; viability, T/C [1]: 109%; viability, T/C [2]: 110%; viability, T/C [3]: 105%; viability, T/C [4]: 96.7%; viability, T/C (second compound 0.0949 µM, first compound 0.000316 µM): 102%; viability, T/C (second compound 0.0949 µM, first compound 0.001 µM): 108%; viability, T/C [5]: 111%; viability, T/C [6]: 103%; viability, T/C [7]: 100%; viability, T/C [8]: 105%; viability, T/C (second compound 0.3 µM, first compound 0.000316 µM): 118%; viability, T/C (second compound 0.3 µM, first compound 0.001 µM): 117%; viability, T/C [9]: 108%; viability, T/C [10]: 105%; viability, T/C [11]: 97.8%; viability, T/C [12]: 119%; viability, T/C (second compound 0.949 µM, first compound 0.000316 µM): 111%; viability, T/C (second compound 0.949 µM, first compound 0.001 µM): 121%; viability, T/C [13]: 112%; viability, T/C [14]: 114%; viability, T/C [15]: 115%; viability, T/C [16]: 119%; viability, T/C (second compound 3 µM, first compound 0.000316 µM): 119%; viability, T/C (second compound 3 µM, first compound 0.001 µM): 123%; viability, T/C [17]: 112%; viability, T/C [18]: 104%; viability, T/C [19]: 115%; viability, T/C [20]: 112%
